Reference: patent US11560370B1, “5-membered heteroaryl carboxamide compounds for treatment of HBV” (Assembly Biosciences, Inc., priority 2018, dated 2023)
Read-outs that look alike come from different tables or passages of the source.

System: HBV
Assay: Viral production from HepAD38 cells, viral load by qPCR of HBV core sequence
Format: cell-based
Settings: 5 days, supernatant HBV DNA by qPCR, read-out: Viral Load EC50 Activity range
Description: Assay Measuring Activity of Test Compounds on Viral Production from HepAD38 Cells
HepAD38 cells grown in a T-150 flask (Corning, cat #: 430825) with Growth Medium (DMEM/F12 (1:1) (Hyclone, cat #: SH30023.02), 1× Pen/Strep (Invitrogen, cat #: 15140-122), 10% FBS (Tissue Culture Biologics, cat #: 101), 250 μg/mL G418 (Alfa Aesar, cat #: J62671), 1 μg/mL Tetracycline (Teknova, cat #: T3320)) were detached with 0.25% trypsin-EDTA to (Invitrogen, cat #: 25200-056). Tetracycline-free treatment medium (15 mL DMEM/F12 (1:1) 1× Pen/step, with 2% FBS, Tet-system approved (Clontech, cat #: 631106) were then added to mix, transferred into a 50 ml conical tube (Falcon, cat #: 21008-918,) and spun at 1300 rpm for 5 min. Pelleted cells were then re-suspended/washed with 50 mL of 1×DPBS (Invitrogen, cat #: 14190-136) 2 times and 50 mL treatment medium twice. HepAD38 cells were then re-suspended with 10 mL of treatment medium, syringed and counted. Wells of 96-well clear bottom TC plate (Corning, cat #: 3904,) were seeded at 50,000 cells/well in 180 μL of treatment medium, and 20 μL of either 10% DMSO (Sigma, cat #: D4540) as controls or a 10× solution of test compounds in 10% DMSO in treatment media was added for a final compound concentration starting at 10 μM, and plates were incubated in 5% CO2 incubator at 37° C. for 5 days.
Subsequently viral load production was assayed by quantitative PCR (qPCR) of the HBV core sequence. PCR reaction mixture containing forward primers HBV-f 5′-CTGTGCCTTGGGTGGCTTT-3′ (IDT DNA), Reverse primers HBV-r 5′-[…]-3′ (IDT DNA), Fluorescent TaqMan™ Probes HBV-probe 5′-FAM/AGCTCCAAA/ZEN/[…]/3IABkFQ-3′ (IDT DNA), 10 μL/well of PerfeCTa® qPCR ToughMix® (Quanta Biosciences, Cat #: 95114-05K), and 6 μL/well of DEPC water (Alfa Aesar, cat #: J62087) was prepared. […] of supernatant was added to 16 μL of the reaction mixture in a qPCR plate (Applied Biosytems, Cat #: 4309849), sealed with a film (Applied Biosystems, Cat #: 4311971), centrifuged for a few seconds, and subsequently run on an Applied Biosystems VIIA7. The PCR mixture was incubated at 45° C. for 5 min, then 95° C. for 10 min, followed by 40 cycles of 10 seconds at 95° C. and 20 seconds at 60° C. Viral load was quantified against known HBV DNA standards by using ViiA™ 7 Software. Viral load in the supernatant from wells with treated cells were compared against viral load in supernatant from DMSO control wells (>3 per plate). Cell viability assay was performed with CellTiter-Glo Luminescent Cell Viability Assay (Promega, cat #: G7573) with modification. Mixed appropriate amount of CellTiter-Glo (CTG) 1×DPBS in a 1:1 ratio, added 100 uL of the mixture to each well followed completely removal of all supernatant in each well without touching cell surface. Incubated the plate at room temperature for 10 min on an orbital shaker, and then read the plate with a plate reader (TECAN M1000 or Envision). EC50 or CC50 values were calculated through curve-fitting of the four-parameter nonlinear-logistic-regression model (GraphPad Prism or Dotmatics). CC50 values were all >10 μM.

[1] = Hepatitis B virus, HePAD38, 120 h

COc1ccccc1C1CCC(c2nn(C)c(N)c2C(=O)Nc2ccc(F)c(Cl)c2)C1 (single isomer, unassigned) [AIA-275A, 5-Amino-N-(3-chloro-4-fluorophenyl)-3-(3-(2-methoxyphenyl)cyclopentyl)-1-methyl-1H-pyrazole-4-carboxamide]
EC50 [1]: 100 to 500 nM

COc1ccccc1C1CCC(c2nn(C)c(N)c2C(=O)Nc2ccc(F)c(Cl)c2)C1 (single isomer, unassigned) [AIA-275B, 5-Amino-N-(3-chloro-4-fluorophenyl)-3-(3-(2-methoxyphenyl)cyclopentyl)-1-methyl-1H-pyrazole-4-carboxamide]
EC50: 100 to 500 nM

COc1ccccc1C1CCC(c2nn(C)c(N)c2C(=O)Nc2ccc(F)c(Cl)c2)C1 (single isomer, unassigned) [AIA-275D, 5-Amino-N-(3-chloro-4-fluorophenyl)-3-(3-(2-methoxyphenyl)cyclopentyl)-1-methyl-1H-pyrazole-4-carboxamide]
EC50: < 100 nM

COc1cccc(C2CCC(c3nn(C)c(N)c3C(=O)Nc3ccc(F)c(Cl)c3)C2)c1 (single isomer, unassigned) [AIA-276D, 5-Amino-N-(3-chloro-4-fluorophenyl)-3-(3-(3-methoxyphenyl)cyclopentyl)-1-methyl-1H-pyrazole-4-carboxamide]
EC50 [1]: < 100 nM

Cn1nc(C2CC3CC(O)(CSCCO)CC3C2)c(C(=O)Nc2ccc(F)c(Cl)c2)c1N (single isomer, unassigned) [AIA-283-1, 5-Amino-N-(3-chloro-4-fluorophenyl)-3-(5-hydroxy-5-(((2-hydroxyethyl)thio)methyl)octahydropentalen-2-yl)-1-methyl-1H-pyrazole-4-carboxamide]
EC50 [1]: < 100 nM

Cn1nc(C2CC3CC(O)(CSCCN4CCOCC4)CC3C2)c(C(=O)Nc2ccc(F)c(Cl)c2)c1N (single isomer, unassigned) [AIA-284-1, 5-Amino-N-(3-chloro-4-fluorophenyl)-3-(5-hydroxy-5-(((2-morpholinoethyl)thio)methyl)octahydropentalen-2-yl)-1-methyl-1H-pyrazole-4-carboxamide]
EC50 [1]: < 100 nM

CC(C)OCC1(O)CC2CC(c3nn(C)c(N)c3C(=O)Nc3ccc(F)c(Cl)c3)CC2C1 (single isomer, unassigned) [AIA-339-1, 5-Amino-N-(3-chloro-4-fluorophenyl)-3-(5-hydroxy-5-(isopropoxymethyl)octahydropentalen-2-yl)-1-methyl-1H-pyrazole-4-carboxamide]
EC50: 500 to 10000 nM

CC(C)OCC1(O)CC2CC(c3nn(C)c(N)c3C(=O)Nc3ccc(F)c(Cl)c3)CC2C1 (single isomer, unassigned) [AIA-339-2, 5-Amino-N-(3-chloro-4-fluorophenyl)-3-(5-hydroxy-5-(isopropoxymethyl)octahydropentalen-2-yl)-1-methyl-1H-pyrazole-4-carboxamide]
EC50: 100 to 500 nM

Cn1nc(C2CC3CC(O)(CS(=O)(=O)CCCN4CCCCC4)CC3C2)c(C(=O)Nc2ccc(F)c(Cl)c2)c1N (single isomer, unassigned) [AIA-349-b, 5-Amino-N-(3-chloro-4-fluorophenyl)-3-(5-hydroxy-5-(((3-(piperidin-1-yl)propyl)sulfonyl)methyl)octahydropentalen-2-yl)-1-methyl-1H-pyrazole-4-carboxamide]
EC50 [1]: 100 to 500 nM

Cn1nc(C2CC3CC(O)(CS(=O)(=O)CCCN4CCNCC4=O)CC3C2)c(C(=O)Nc2ccc(F)c(Cl)c2)c1N (single isomer, unassigned) [AIA-351-a, 5-Amino-N-(3-chloro-4-fluorophenyl)-3-(5-hydroxy-5-(((3-(2-oxopiperazin-1-yl)propyl)sulfonyl)methyl)octahydropentalen-2-yl)-1-methyl-1H-pyrazole-4-carboxamide]
EC50 [1]: 500 to 10000 nM

COc1cc(-c2ncc[nH]2)ccc1C1CCC(c2nn(C)c(N)c2C(=O)Nc2ccc(F)c(Cl)c2)C1 (single isomer, unassigned) [AIA-352-1, 3-(3-(4-(1H-Imidazol-2-yl)-2-methoxyphenyl)cyclopentyl)-5-amino-N-(3-chloro-4-fluorophenyl)-1-methyl-1H-pyrazole-4-carboxamide]
EC50: 500 to 10000 nM

COc1cc(-c2ncc[nH]2)ccc1C1CCC(c2nn(C)c(N)c2C(=O)Nc2ccc(F)c(Cl)c2)C1 (single isomer, unassigned) [AIA-352-2, 3-(3-(4-(1H-Imidazol-2-yl)-2-methoxyphenyl)cyclopentyl)-5-amino-N-(3-chloro-4-fluorophenyl)-1-methyl-1H-pyrazole-4-carboxamide]
EC50: < 100 nM

Cn1nc(C2CC3CC(O)(CN4CCCCC4)CC3C2)c(C(=O)Nc2ccc(F)c(Cl)c2)c1N (single isomer, unassigned) [AIA-363-1, 5-Amino-N-(3-chloro-4-fluorophenyl)-3-(5-hydroxy-5-(piperidin-1-ylmethyl)octahydropentalen-2-yl)-1-methyl-1H-pyrazole-4-carboxamide]
EC50 [1]: 100 to 500 nM

Cn1nc(C2CC3CC(O)(CN4CCCCC4)CC3C2)c(C(=O)Nc2ccc(F)c(Cl)c2)c1N (single isomer, unassigned) [AIA-363-2, 5-Amino-N-(3-chloro-4-fluorophenyl)-3-(5-hydroxy-5-(piperidin-1-ylmethyl)octahydropentalen-2-yl)-1-methyl-1H-pyrazole-4-carboxamide]
EC50: 100 to 500 nM

Cn1nc(C2CC3CC(O)(CN4CCOCC4)CC3C2)c(C(=O)Nc2ccc(F)c(Cl)c2)c1N (single isomer, unassigned) [AIA-364-2, 5-Amino-N-(3-chloro-4-fluorophenyl)-3-(5-hydroxy-5-(morpholinomethyl)octahydropentalen-2-yl)-1-methyl-1H-pyrazole-4-carboxamide]
EC50 [1]: 100 to 500 nM

COc1cc(-c2cn(C)cn2)ccc1C1CCC(c2nn(C)c(N)c2C(=O)Nc2ccc(F)c(Cl)c2)C1 (single isomer, unassigned) [AIA-365-2, 5-Amino-N-(3-chloro-4-fluorophenyl)-3-(3-(2-methoxy-4-(1-methyl-1H-imidazol-4-yl)phenyl)cyclopentyl)-1-methyl-1H-pyrazole-4-carboxamide]
EC50 [1]: < 100 nM

COc1cc(-c2c[nH]cn2)ccc1C1CCC(c2nn(C)c(N)c2C(=O)Nc2ccc(F)c(Cl)c2)C1 (single isomer, unassigned) [AIA-366-2, 3-(3-(4-(1H-Imidazol-4-yl)-2-methoxyphenyl)cyclopentyl)-5-amino-N-(3-chloro-4-fluorophenyl)-1-methyl-1H-pyrazole-4-carboxamide]
EC50 [1]: < 100 nM

COc1cc(-c2nccn2C)ccc1C1CCC(c2nn(C)c(N)c2C(=O)Nc2ccc(F)c(Cl)c2)C1 (single isomer, unassigned) [AIA-367-1, 5-Amino-N-(3-chloro-4-fluorophenyl)-3-(3-(2-methoxy-4-(1-methyl-1H-imidazol-2-yl)phenyl)cyclopentyl)-1-methyl-1H-pyrazole-4-carboxamide]
EC50 [1]: 100 to 500 nM

COc1cc(-c2nccn2C)ccc1C1CCC(c2nn(C)c(N)c2C(=O)Nc2ccc(F)c(Cl)c2)C1 (single isomer, unassigned) [AIA-367-2, 5-Amino-N-(3-chloro-4-fluorophenyl)-3-(3-(2-methoxy-4-(1-methyl-1H-imidazol-2-yl)phenyl)cyclopentyl)-1-methyl-1H-pyrazole-4-carboxamide]
EC50: < 100 nM

COc1ccc([C@H]2CC[C@@H](c3nn(C)c(N)c3C(=O)Nc3ccc(F)c(Cl)c3)C2)cc1 [AIA-003-A, 5-Amino-N-(3-chloro-4-fluorophenyl)-3-((1R,3S)-3-(4-methoxyphenyl)cyclopentyl)-1-methyl-1H-pyrazole-4-carboxamide]
EC50 [1]: < 100 nM
